According to patent US8415372B2, “Sulfonamide compound” (Asahi Kasei Pharma Corporation, priority 2007, dated 2013):

system: rabbit normal intraocular pressure; test: Intraocular pressure reducing action (Test Example 3); type: in vivo, Japanese white rabbit; settings: Oryctolagus cuniculus, topical; 3 mM aqueous solution, 50 μl to the left eye; max difference of left and right eyes at 2, 4 and 6 hours relative to value before administration; read-out: Intraocular pressure reducing degree
Protocol: A Japanese white rabbit having a body weight of about 2 kg was placed in a positioner and naturalized for one week before the experiment. An ophthalmologic local anesthesant (Benoxil) was administered to both eyes, and then intraocular pressure was measured by using a tonometer (Classic 30, Solan). A 3 mM aqueous solution of a test compound was administered in a volume of 50 μl to the left eye, and the right eye was not treated (control eye). The intraocular pressure values were measured for the left and right eyes immediately before, and 2, 4 and 6 hours after the administration of the aqueous solution of the test compound, and the difference of the measured values for the left and right eyes was considered an intraocular pressure reduction value of the test medicament at each measurement time. The largest difference of the values for the left and right eyes among the measured values at the measurement times (after 2, 4 and 6 hours) was considered the maximum intraocular pressure reduction value (max ? IOP) of each test medicament. The intraocular pressure reducing degree representing the intraocular pressure reducing action of each test medicament was calculated according to the following formula. Since rabbits show significant daily variation of intraocular pressure, daily variation is added when change of intraocular pressure is measured over time, and the intraocular pressure reducing action may be overestimated. Therefore, we used this calculation method of intraocular pressure reduction value in order to minimize the influence of the variation. Intraocular pressure reducing degree(%)=(max ? IOP/Intraocular pressure value immediately before administration)×100

CN[C@H]1CCN(S(=O)(=O)c2cccc3cncc(Br)c23)C1 [Example 1-3, (S)-1-(4-Bromo-5-isoquinolinesulfonyl)-3-(methylamino)pyrrolidine] and CN[C@H]1CCN(S(=O)(=O)c2cccc3cncc(C)c23)C1 [Example 8-3] cannot be ordered by inhibition in vivo at 3000 µM: at least 20% for the first, at least 20% for the second.

Compared with COc1ccc(CN[C@H]2CCN(S(=O)(=O)c3cccc4cncc(Br)c34)C2)cc1 [Example 1-7], Cn1cccc1CNC1CCN(S(=O)(=O)c2cccc3cncc(Br)c23)C1 (stereo not drawn) [Example 1-20] is higher in inhibition in vivo at 3000 µM: 5 to 10% for the first, 10 to 20% for the second.

First: Cc1nc(CNC2CCN(S(=O)(=O)c3cccc4cncc(Br)c34)C2)c[nH]1 (stereo not drawn) [Example 1-19]
Second: NCCNC1CCN(S(=O)(=O)c2cccc3cncc(Br)c23)C1 (stereo not drawn) [Example 1-31]
The inhibition in vivo at 3000 µM of the first is lower: 5 to 10% for the first, 10 to 20% for the second.

First: Cc1cncc2cccc(S(=O)(=O)N3CCC(NC(C)C)C3)c12 (stereo not drawn) [Example 8-27]
Second: Cc1cncc2cccc(S(=O)(=O)N3CCC(NCCN)C3)c12 (stereo not drawn) [Example 8-32]
The inhibition in vivo at 3000 µM of the first is higher: 10 to 20% for the first, 5 to 10% for the second.

Cc1cncc2cccc(S(=O)(=O)N3CCC(NC4CCC4)C3)c12 (stereo not drawn) [Example 8-28] and Cc1cncc2cccc(S(=O)(=O)N3CCC(NC4CCCC4)C3)c12 (stereo not drawn) [Example 8-29] fall in the same range of inhibition in vivo at 3000 µM: 5 to 10% for the first, 5 to 10% for the second.

Compared with Cc1cncc2cccc(S(=O)(=O)N3CCC(NC4CCCCC4)C3)c12 (stereo not drawn) [Example 8-30], Cc1cncc2cccc(S(=O)(=O)N3CCC(NC4CCOCC4)C3)c12 (stereo not drawn) [Example 8-31] is higher in inhibition in vivo at 3000 µM: 5 to 10% for the first, 10 to 20% for the second.

First: C=CCNC1CCN(S(=O)(=O)c2cccc3cncc(C)c23)C1 (stereo not drawn) [Example 8-34]
Second: CCN[C@H]1CCN(S(=O)(=O)c2cccc3cncc(Cl)c23)C1 [Example 19-4]
The inhibition in vivo at 3000 µM of the first is lower: 5 to 10% for the first, at least 20% for the second.

First: Cc1cncc2cccc(S(=O)(=O)N3CCC(NCCc4ccccc4)C3)c12 (stereo not drawn) [Example 8-37]
Second: Cn1cccc1CN[C@H]1CCN(S(=O)(=O)c2cccc3cncc(Cl)c23)C1 [Example 19-21]
The inhibition in vivo at 3000 µM of the first is lower: 5 to 10% for the first, at least 20% for the second.

C#Cc1cncc2cccc(S(=O)(=O)N3CC[C@H](NCc4ccco4)C3)c12 [Example 10-14] and O=S(=O)(c1cccc2cncc(Cl)c12)N1CC[C@H](NCc2ccco2)C1 [Example 19-14] fall in the same range of inhibition in vivo at 3000 µM: 5 to 10% for the first, 5 to 10% for the second.

C#Cc1cncc2cccc(S(=O)(=O)N3CC[C@H](NC4CCOCC4)C3)c12 [Example 10-31] and O=S(=O)(c1cccc2cncc(Cl)c12)N1CC[C@H](NC2CCOCC2)C1 [Example 19-31] cannot be ordered by inhibition in vivo at 3000 µM: at least 20% for the first, at least 20% for the second.

First: CN[C@H]1CCN(S(=O)(=O)c2cccc3cncc(Cl)c23)C1 [Example 19-3, (S)-1-(4-Chloro-5-isoquinolinesulfonyl)-3-(methylamino)pyrrolidine]
Second: O=S(=O)(c1cccc2cncc(Cl)c12)N1CC[C@H](NCc2cccs2)C1 [Example 19-17]
The inhibition in vivo at 3000 µM of the first is higher: at least 20% for the first, 5 to 10% for the second.

system: monkey intraocular pressure; test: Intraocular pressure reduction enhancing action in monkey (Test Example 8); type: in vivo; settings: cynomolgus monkey, 30 μL latanoprost (Xalatan) then 30 μL 19-1 compound aqueous solution, compared with single drug groups
Protocol: As for the test compound used for combination use, similar effect can be obtained also with the compounds of the present invention represented with the example numbers mentioned in Test Example 3. The test is performed by using cynomolgus monkeys sufficiently naturalized for the operation of fixation on a monkey chair and intraocular pressure measurement.
As the test compound, the 19-1 compound was dissolved in physiological saline, and the solution is neutralized by addition of sodium hydroxide (pH 7.0 to 8.0) to prepare a 0.01 weight % aqueous solution (19-1 compound aqueous solution). As a drug for combination use, latanoprost (trade name: Xalatan, Pfizer) is used as the marketed formulation per se. The test aqueous solution or the drug for combination use is instilled to the left eye, and the right eye is not treated (control eye). […] After initial intraocular pressure values of the monkeys are measured for each group, 30 μL of physiological saline is instilled to the control group, single drug group 1, and single drug group 2, and latanoprost is instilled in the same volume to the combination use group. […] Then, the intraocular pressure is measured over time for each group.

In the case of N[C@H]1CCN(S(=O)(=O)c2cccc3cncc(Cl)c23)C1 [Example 19-1, (S)-3-Amino-1-(4-chloro-5-isoquinolinesulfonyl)pyrrolidine], the “Intraocular pressure reducing action, combination use group” value is reported as “exceeding those of both the single drug group 1 and single drug group 2”.

same assay, conditions: cynomolgus monkey, 30 μL of 0.01 weight % aqueous solution, compared with control group

With N[C@H]1CCN(S(=O)(=O)c2cccc3cncc(Cl)c23)C1 [Example 19-1, (S)-3-Amino-1-(4-chloro-5-isoquinolinesulfonyl)pyrrolidine] the “Intraocular pressure reducing action, single drug group 1” value was “exceeding that of the control group”.
